Measurements: PubChem BioAssay (NCI)
“And” between values parts separate entries of the source, which are not always exact repeats. Equal entries are not always repeated.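 Compound exposure: 48 hours, 5 concentrations, 96-well plates. The concentration for 50% growth inhibition is given as GI50. TGI: concentration producing complete growth inhibition.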

Tests used:
Assay in all cases: NCI tumour cell line growth inhibition, 48 h
DLD-1 colon = test system: DLD-1 colon
DMS 273 small cell lung = test system: DMS 273 small cell lung
DU-145 prostate = test system: DU-145 prostate
KM20L2 colon = test system: KM20L2 colon
M19-MEL melanoma = test system: M19-MEL melanoma
OVCAR-4 ovarian = test system: OVCAR-4 ovarian
OVCAR-8 ovarian = test system: OVCAR-8 ovarian
RXF 393 renal = test system: RXF 393 renal
SK-MEL-28 melanoma = test system: SK-MEL-28 melanoma
SW-620 colon = test system: SW-620 colon
UACC-257 melanoma = test system: UACC-257 melanoma
UACC-62 melanoma = test system: UACC-62 melanoma

SMILES | TGI (DLD-1 colon) | TGI (DMS 273 small cell lung) | TGI (DU-145 prostate) | TGI (KM20L2 colon) | TGI (M19-MEL melanoma) | GI50 (OVCAR-4 ovarian) | TGI (OVCAR-4 ovarian) | GI50 (OVCAR-8 ovarian) | TGI (OVCAR-8 ovarian) | TGI (RXF 393 renal) | GI50 (SK-MEL-28 melanoma) | TGI (SK-MEL-28 melanoma) | GI50 (SW-620 colon) | TGI (SW-620 colon) | TGI (UACC-257 melanoma) | TGI (UACC-62 melanoma)
c1ccc2c(CN3CCC(C4CCN(Cc5cccc6ccccc56)CC4)CC3)cccc2c1 | 26.8 µM | 22.9 µM | > 100 µM | 10.3 µM | 20.7 µM | 13.6 µM and 35.9 µM | 38.2 µM and > 100 µM | 21.8 µM and 6.98 µM | > 72.4 µM | 26.9 µM and 43.3 µM | 1.48 µM and 3.1 µM | 2.85 µM and 8.19 µM | 3.02 µM and 11.4 µM | 9.17 µM and 40.1 µM | 4.25 µM and 11.9 µM | 17.5 µM and 20.9 µM
Cc1ccc(Nc2nc(C)c(C(/C=C/c3ccc4c(c3)OCO4)=N/Nc3ccc([N+](=O)[O-])cc3[N+](=O)[O-])s2)c([N+](=O)[O-])c1 | > 100 µM | > 100 µM | – | > 100 µM | > 100 µM | – | > 100 µM | – | > 100 µM | > 100 µM | – | > 100 µM | – | > 100 µM | > 100 µM | 17.8 µM
OC1c2ccccc2C2C(O)c3ccccc3C12 (stereo not given) | > 100 µM | > 100 µM | – | > 100 µM | > 100 µM | – | > 100 µM | – | > 100 µM | > 100 µM | – | > 100 µM | – | > 100 µM | > 100 µM | > 100 µM
COc1cc(/C=C\c2ccc(Cl)cc2)cc(OC)c1OC | > 100 µM | 19.4 µM | – | 0.372 µM | > 100 µM | – | > 100 µM | – | > 100 µM | > 100 µM | – | > 67.5 µM | – | > 100 µM | 39.2 µM | > 100 µM
CCOC(=O)c1cn(CC)c2cc3c(cc2c1=O)SCS3 | > 100 µM | > 100 µM | – | > 100 µM | > 100 µM | – | > 100 µM | – | > 100 µM | > 100 µM | – | > 100 µM | – | > 100 µM | > 100 µM | > 100 µM
CCSC(=O)C1(C)OC2CCCCC2C1=O (stereo not given) | > 100 µM | > 100 µM | – | > 100 µM | > 100 µM | – | > 100 µM | – | > 100 µM | > 100 µM | – | > 100 µM | – | > 100 µM | > 100 µM | > 100 µM
O=C1NN=CN2C(=O)CCC12 (stereo not given) | > 100 µM | > 100 µM | – | > 100 µM | > 100 µM | – | > 100 µM | – | > 100 µM | > 100 µM | – | > 100 µM | – | > 100 µM | > 100 µM | > 100 µM
Cc1cc(C)nc(NS(=O)(=O)c2ccc(NC(=O)c3cccc4c(N)c5ccccc5nc34)cc2)n1 | > 100 µM | > 100 µM | – | > 100 µM | > 100 µM | – | > 100 µM | – | > 100 µM | > 100 µM | – | > 100 µM | – | > 100 µM | > 100 µM | > 100 µM
O=C1NN=C(c2ccc([N+](=O)[O-])cc2)C1n1nc(-c2ccccc2)c2ccccc2c1=O (stereo not given) | > 78.7 µM | > 68.3 µM | – | > 100 µM | > 100 µM | – | > 100 µM | – | > 100 µM | > 100 µM | – | > 100 µM | – | > 100 µM | > 100 µM | > 100 µM
CCOC(=O)/C=C1\Oc2ccccc2C1(C)O (stereo not given) | > 100 µM | > 100 µM | – | > 100 µM | > 100 µM | – | > 100 µM | – | > 100 µM | > 100 µM | – | > 100 µM | – | > 100 µM | > 100 µM | > 100 µM
